# Laboratory results: PubChem BioAssay (NCI)
# Values joined by “and” are separate entries in the source; they are usually repeats but may differ in a detail not shown here. Equal values may be shown once.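 Where inhibition never reached the appropriate level, the endpoint shown equals the highest concentration tested. Otherwise, values were interpolated linearly from a five-concentration, 48-hour dose response in 96-well plates. GI50 is the concentration that inhibits growth by half. The concentration for full growth arrest is given as TGI.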 Where a SMILES comes first, the peptide text is derived from it. [ ]: non-standard residue; d: D form. The star is where a group is joined. ξ: configuration not given here. NMeF = CN[CH](Cc1ccccc1)C(=O)O; ξNMeF = CNC(Cc1ccccc1)C(=O)O; NMeV = CN[CH](C(=O)O)C(C)C; Boc = CC(C)(C)OC(=O)*; OBn = c1ccc(CO*)cc1
# Tests used:
# Test in all cases: DTP human tumour cell line panel, 48 h
# CAKI-1 renal = tested on: CAKI-1 renal
# DU-145 prostate = tested on: DU-145 prostate
# HOP-92 NSCLC = tested on: HOP-92 NSCLC
# M14 melanoma = tested on: M14 melanoma
# NCI-H522 lung = tested on: NCI-H522 lung
# OVCAR-3 ovarian = tested on: OVCAR-3 ovarian
# PC-3 prostate = tested on: PC-3 prostate
# RXF 393 renal = tested on: RXF 393 renal
# SF-295 CNS = tested on: SF-295 CNS
# SK-MEL-2 melanoma = tested on: SK-MEL-2 melanoma
# T-47D breast = tested on: T-47D breast
# UACC-257 melanoma = tested on: UACC-257 melanoma
# UO-31 renal = tested on: UO-31 renal
# BT-549 breast = tested on: BT-549 breast
# SF-268 CNS = tested on: SF-268 CNS
Compound,TGI (CAKI-1 renal) [µM],TGI (DU-145 prostate) [µM],TGI (HOP-92 NSCLC) [µM],TGI (M14 melanoma) [µM],TGI (NCI-H522 lung),TGI (OVCAR-3 ovarian) [µM],TGI (PC-3 prostate) [µM],TGI (RXF 393 renal) [µM],TGI (SF-295 CNS) [µM],TGI (SK-MEL-2 melanoma),TGI (T-47D breast) [µM],TGI (UACC-257 melanoma) [µM],TGI (UO-31 renal) [µM],TGI (BT-549 breast) [µM],TGI (SF-268 CNS) [µM],GI50 (HOP-92 NSCLC) [µM],GI50 (SK-MEL-2 melanoma),GI50 (SF-295 CNS) [µM],GI50 (OVCAR-3 ovarian),GI50 (UACC-257 melanoma)
C=C(C)[C@H]1CC[C@@]23O[C@@H]2[C@@H](C[C@@]2(C)CC(=O)[C@H](CC(=O)C1)O2)OC(=O)[C@@]12CC[C@H](C(=C)C)CC(=O)C[C@H]4O[C@](C)(CC4=O)C[C@@H](OC3=O)[C@@H]1O2,> 100,> 100,> 100,> 100,> 100 µM,> 100,> 100,> 100,> 100,> 100 µM,> 100,> 100,> 100,,,,,,,
C=C(Cl)/C(=C\Cl)CCC(Cl)C(C)C (configuration not stated) (tested in a mixture with another compound),32.2,31.9,28.6,32.7,16.8 µM,30.1,39,23.6,41.2,27.1 µM,,27.2,32.1,29.3,37.1,,,,,
CCCCN=NNc1cn(C2OC(CO)C(O)C2O)c(=O)[nH]c1=O (configuration not stated),> 100,> 100,,> 100,> 100 µM,> 100,> 100,> 100,> 100,> 100 µM,> 100,> 100,,,> 100,,,,,
CC(C)[C@@H](C(=O)N(C)[C@H](C(=O)N1CCC[C@H]1C(=O)OCc1ccccc1)C(C)C)N(C)C(=O)C(Cc1ccccc1)N(C)C(=O)[C@H](NC(=O)OC(C)(C)C)C(C)C (some centres not stated) (Boc-[dV][ξNMeF][NMeV][NMeV]P-OBn),> 31.6,,> 31.6,> 100,> 100 µM,> 67.2,,> 31.6,> 31.6,> 31.6 µM,,> 31.6,> 31.6,,> 31.6,,,,,
Cc1ccc2[nH]c3c(c(=O)n(C)c(=O)n3C)c2c1,> 100,> 100,> 100,> 100,> 100 µM,,,,> 100,> 100 µM,> 100,> 100,> 100,> 100,> 100,,,,,
Cn1c(=O)c2ccccc2[n+]2c(-c3cccc([N+](=O)[O-])c3)csc12,> 100,> 100,> 100,> 100,> 100 µM,> 100,> 100,> 100,> 100,> 100 µM,> 100,> 100,> 100,,> 100,,,,,
COC(=O)[C@@H]1CN(C(=O)CCc2ccccc2)C(=O)N1,> 100,> 100,> 100,> 100,> 100 µM,> 100,> 100,> 100,> 100,> 100 µM,> 100,> 100,> 100,,> 100,,,,,
O=C(O)CCC(NC(=O)c1ccc(Nc2cnc3cc(C(F)(F)F)ccc3n2)cc1)C(=O)O (configuration not stated),,,> 100,,> 100 µM,> 100,,> 100,> 100,> 100 µM,,> 100,> 100,,> 100,,,,,
S=C1NC2=C(CSC/C2=C\c2ccc(Cl)cc2)C(c2ccc(Cl)cc2)N1 (configuration not stated),> 100,> 100,88.4,,> 100 µM,> 100,> 100,,> 100,> 100 µM,> 100,> 100,> 100,,> 100,,,,,
C=C1CN=C(Nc2ccc(Cl)cc2)S1,> 10,> 100,> 100,> 100,,> 100,> 100,,> 100,> 100 µM,> 100,> 100,> 100,,> 100,,,,,
C/C(=C\COP(=O)(O)OP(=O)(O)O)CCCCCCOCc1ccccc1,> 100,> 100,> 100,> 100,> 100 µM,> 100,,> 100,> 100,,> 100,> 100,> 100,> 100,> 100,,,,,
COc1ccc2c(c1)CCc1c-2[nH]c2cc3c(cc2c1=O)OCO3,> 100,,> 100,> 100,> 100 µM,,,,,> 100 µM,,,> 100,,,,,,,
O=C(Sc1c(-c2ccccc2)c(=O)n(-c2ccccc2)c(=S)n1-c1ccccc1)c1ccccc1,> 100,> 100,71.9,> 100,> 100 µM,> 100,> 100,,> 100,> 100 µM,> 100,> 100,> 100,> 100,> 100,,,,,
C=C1CC(OC)(C(OC)C(=O)N[C@H]2OCO[C@H]3C2O[C@H](C[C@@H](COC)OC)C(C)(C)C3OC)O[C@H](C)[C@@H]1C (some centres not stated),3.6,,4.76,,,2.96,,5.38,3.28,14.9 µM,,14.7,5.71,,,,,,,
O=C(NN1C(=O)CS(=O)(=O)C1c1ccc(Cl)c(Cl)c1)c1ccncc1 (configuration not stated),> 100,,> 100,,> 100 µM,> 100,,> 100,> 100,> 100 µM,,> 100,> 100,,> 100,,,,,
CCCCC(=O)/C=c1/cc(C)[nH]c2cccc3cnn1c32,> 100,> 100,> 100,> 100,> 100 µM,> 100,> 100,,> 100,> 100 µM,> 100,> 100,> 100,> 100,> 100,,,,,
CCOC(=O)c1ncn(CCc2ccc(Cl)cc2)c1C,> 100,> 100,> 100,> 100,> 100 µM,> 100,> 100,> 100,> 100,> 100 µM,,> 100,> 100,> 100,> 100,,,,,

Compound,TGI (CAKI-1 renal) [µM],TGI (DU-145 prostate) [µM],TGI (HOP-92 NSCLC) [µM],TGI (M14 melanoma) [µM],TGI (NCI-H522 lung),TGI (OVCAR-3 ovarian) [µM],TGI (PC-3 prostate) [µM],TGI (RXF 393 renal) [µM],TGI (SF-295 CNS) [µM],TGI (SK-MEL-2 melanoma),TGI (T-47D breast) [µM],TGI (UACC-257 melanoma) [µM],TGI (UO-31 renal) [µM],TGI (BT-549 breast) [µM],TGI (SF-268 CNS) [µM],GI50 (HOP-92 NSCLC) [µM],GI50 (SK-MEL-2 melanoma),GI50 (SF-295 CNS) [µM],GI50 (OVCAR-3 ovarian),GI50 (UACC-257 melanoma)
COC(=O)c1cc(CC2Cc3cc4c(cc3C2=O)CCC4)cc2c1CCC2 (configuration not stated),> 100,> 100,,> 100,> 100 µM,> 100,> 100,,> 100,> 100 µM,> 100,> 100,> 100,> 100,> 100,,,,,
CCc1n[nH]c(=O)n1CC,> 100,> 100,> 100,,> 100 µM,> 100,,,> 100,> 100 µM,> 100,> 100,> 100,> 100,> 100,,,,,
Nc1nc(SCC(=O)c2ccccc2)c2[nH]cnc2n1,> 100,,> 100,> 100,> 100 µM,> 100,,,> 100,> 100 µM,,> 100,,,> 100,,,,,
CC(=O)[O-].CC(=O)[O-].O=C(N/N=C/c1cc(Cl)cc(Cl)c1[OH2+])c1ccncc1.[Mn+2],,,9.91,13.6,14.8 µM,0.956,,20.7,7.48,8.38 µM,,14.7,18.6,,27.2,4.71,3.85 µM,,,
CC[C@H](C)[C@@H]([C@@H](CC(=O)N1CCC[C@H]1[C@H](OC)[C@@H](C)C(=O)NCCc1ccccc1)OC)N(C)C(=O)C(NC(=O)[C@H](C(C)C)N(C)C)C(C)C (some centres not stated),> 10,0.000963,,0.000855,0.000434 µM,0.000544,,> 10,,,> 10,> 10,> 10,> 10,> 10,,,0.000281,,
CNc1cc([N+](=O)[O-])ccc1C(=O)N1CCC[C@H]1CO,,> 100,> 100,> 100,> 100 µM,> 100,> 100,,> 100,> 100 µM,> 100,> 100,> 100,,> 100,,,,,
O=c1[nH]c(=O)c2c([nH]1)[nH]c1ccc(Br)cc12,> 100,> 100,> 100,> 100,> 100 µM,,,> 100,> 100,> 100 µM,> 100,> 100,> 100,> 100,> 100,,,,,
CC(=O)OCC1OC(n2c(C)c(C(C)=O)c(-c3ccco3)c(C#N)c2=S)C(OC(C)=O)C(OC(C)=O)C1OC(C)=O (configuration not stated),,> 100,87.5,> 100,> 100 µM,> 100,> 100,> 100,> 100,98.4 µM and > 100 µM,> 100,> 100,,,> 100,,27.4 µM and 74.4 µM,,,
COCn1cc(C2=C(C)C(=O)C(C)=C(C)C2=O)cn1,> 100,> 100,37.5,> 100,,40,> 100,> 100,> 100,> 100 µM,56.1,> 100,> 100,,66,,,,,
Clc1sc(Cl)c2c1[C@H](Cl)C[C@@H]2Cl,44.5,96.9,34.4,37.4,3.31 µM,70.9,,,> 100,65.9 µM,72.9,92.9,32.3,62.5,44.3,,,,,
C/C(O)=C(\C=N\C(=S)N=Nc1c(O)[nH]c2ccccc12)C(=O)Nc1ccccc1C,> 100,> 100,> 100,> 100,,> 100,,> 100,> 100,> 100 µM,> 100,> 100,> 100,> 100,> 100,,,,,
CC(C)C(NC(=O)OC(C)(C)C)C(=O)N(C)C(Cc1ccccc1)C(=O)N(C)C(C(=O)OCc1ccccc1)C(C)C (stereo not drawn) (Boc-Val-[NMeF]-[NMeV]-OBn; configuration not given here),,,,> 100,29.7 µM and 69 µM,> 100,,,> 100,,,> 100,> 100,,> 100,,,,35.5 µM and > 100 µM,20.5 µM and 44.3 µM
CCN(CC)C(=O)CCn1cc(F)c(=O)[nH]c1=O,,,,> 100,> 100 µM,> 100,,> 100,> 100,> 100 µM,,,> 100,,> 100,,,,,
Cc1ccc(Nc2cccc3c2C(=O)c2cccc(Nc4ccc(C)cc4S(=O)(=O)O)c2C3=O)c(S(=O)(=O)O)c1,> 100,,,> 100,> 100 µM,> 100,,> 100,,> 100 µM,,> 100,> 100,,> 100,,,,,
COc1ccc(Cc2cc(Cc3ccc(OC)cc3)cc(Cc3ccc(OC)cc3)c2)cc1,,> 100,> 100,> 100,> 100 µM,> 100,> 100,,> 100,> 100 µM,> 100,> 100,> 100,> 100,> 100,,,,,
O=C(OCc1ccccc1)C(Cc1ccc(OCc2ccccc2)cn1)NC(=O)C(F)(F)F (configuration not stated),> 100,> 100,> 100,,> 100 µM,> 100,> 100,> 100,> 100,,,> 100,> 100,> 100,> 100,,,,,
O=C1CSC(c2ccccc2O)N1c1ccc2c(c1)Oc1c(Cl)c3c(c(Cl)c1=N2)Oc1cc(N2C(=O)CSC2c2ccccc2O)ccc1N=3 (configuration not stated),> 100,> 100,39.9,> 100,52 µM,> 100,> 100,44.5,> 100,> 100 µM,> 100,> 100,> 100,,> 100,,,,,
